Reference: ChEMBL document CHEMBL5036347, “Design of the naphthyl-diarylpyrimidines as potent non-nucleoside reverse transcriptase inhibitors (NNRTIs) via structure-based extension into the entrance channel” (Eur J Med Chem, 2021)

How the values were obtained:
[1] = Resistance fold, ratio of EC50 for HIV1 harboring reverse transcriptase E138K mutant […] to EC50 for wild type HIV1 […]; format: functional
[2] = system: Human immunodeficiency virus 1; experiment: Antiviral activity against HIV1 harboring reverse transcriptase Y188L mutant infected in human MT4 cells assessed as protection against virus-induced cytopathic effect incubated for 5 days by MTT assay; format: functional, organism-based; conditions: Human immunodeficiency virus 1, MT4, 120 h
[3] = system: Human immunodeficiency virus 1; experiment: Antiviral activity against HIV1 harboring reverse transcriptase K103N mutant infected in human MT4 cells assessed as protection against virus-induced cytopathic effect incubated for 5 days by MTT assay; format: functional, organism-based; conditions: Human immunodeficiency virus 1, MT4, 120 h
[4] = target: Human immunodeficiency virus type 1 reverse transcriptase (Human immunodeficiency virus 1, UniProt Q72547); experiment: Inhibition of wild type HIV1 reverse transcriptase using oligo(dT)16 as primer measured after 40 mins by picogreen-dye based spectrofluorimetric analysis
[5] = system: Human immunodeficiency virus 1; experiment: Antiviral activity against HIV1 harboring reverse transcriptase F227L/V106A mutant infected in human MT4 cells assessed as protection against virus-induced cytopathic effect incubated for 5 days by MTT assay; format: functional, organism-based; conditions: Human immunodeficiency virus 1, MT4, 120 h
[6] = system: Human immunodeficiency virus 2; experiment: Anti-HIV activity against HIV2 ROD infected in human MT4 cells assessed as reduction in virus-induced cytopathic effect incubated for 5 days by MTT assay; format: functional, organism-based; conditions: Human immunodeficiency virus 2, ROD, MT4, 120 h
[7] = Resistance fold, ratio of EC50 for HIV1 harboring reverse transcriptase Y188L mutant […] to EC50 for wild type HIV1 […]; format: functional
[8] = Resistance fold, ratio of EC50 for HIV1 harboring reverse transcriptase K103N mutant […] to EC50 for wild type HIV1 […]; format: functional
[9] = Selectivity index, ratio of CC50 for cytotoxicity against human MT4 cells to EC50 of Anti-HIV activity against HIV-1 IIIB infected in human MT4; format: toxicity, cell-based; conditions: read-out: Selectivity Index
[10] = Resistance fold, ratio of EC50 for HIV1 harboring reverse transcriptase Y181C mutant […] to EC50 for wild type HIV1 […]; format: functional
[11] = system: Human immunodeficiency virus 1; experiment: Antiviral activity against HIV1 harboring reverse transcriptase E138K mutant infected in human MT4 cells assessed as protection against virus-induced cytopathic effect incubated for 5 days by MTT assay; format: functional, organism-based; conditions: Human immunodeficiency virus 1, MT4, 120 h
[12] = Resistance fold, ratio of EC50 for HIV1 harboring reverse transcriptase F227L/V106A double mutant […] to EC50 for wild type HIV1 […]; format: functional
[13] = system: Human immunodeficiency virus 1; experiment: Antiviral activity against HIV1 harboring reverse transcriptase Y181C mutant infected in human MT4 cells assessed as protection against virus-induced cytopathic effect incubated for 5 days by MTT assay; format: functional, organism-based; conditions: Human immunodeficiency virus 1, MT4, 120 h
[14] = system: Human immunodeficiency virus 1; experiment: Antiviral activity against HIV1 harboring reverse transcriptase K103N/Y181C double mutant infected in human MT4 cells assessed as protection against virus-induced cytopathic effect incubated for 5 days by MTT assay; format: functional, organism-based; conditions: Human immunodeficiency virus 1, MT4, 120 h
[15] = Resistance fold, ratio of EC50 for HIV1 harboring reverse transcriptase K103N/Y181C double mutant […] to EC50 for wild type HIV1 […]; format: functional
[16] = Resistance fold, ratio of EC50 for HIV1 harboring reverse transcriptase L100I mutant […] to EC50 for wild type HIV1 […]; format: functional
[17] = system: Human immunodeficiency virus 1; experiment: Anti-HIV activity against HIV-1 IIIB infected in human MT4 cells assessed as reduction in virus-induced cytopathic effect incubated for 5 days by MTT assay; format: functional, organism-based; conditions: Human immunodeficiency virus 1, IIIB, MT4, 120 h
[18] = Cytotoxicity against human MT4 cells assessed as reduction in cell viability incubated for 5 days by MTT assay; format: cell-based; conditions: human, MT4 cells; time 5 day
[19] = system: Human immunodeficiency virus 1; experiment: Antiviral activity against HIV1 harboring reverse transcriptase L100I mutant infected in human MT4 cells assessed as protection against virus-induced cytopathic effect incubated for 5 days by MTT assay; format: functional, organism-based; conditions: Human immunodeficiency virus 1, MT4, 120 h

SMILES	Ratio EC50 [1]	EC50 [2] [µM]	EC50 [3] [µM]	IC50 [4] [µM]	EC50 [5] [µM]	EC50 [6] [µM]	Ratio EC50 [7]	Ratio EC50 [8]	selectivity ratio [9]	Ratio EC50 [10]	EC50 [11] [µM]	Ratio EC50 [12]	EC50 [13] [µM]	EC50 [14] [µM]	Ratio EC50 [15]	Ratio EC50 [16]	EC50 [17] [µM]	CC50 at 120 h [18] [µM]	EC50 [19] [µM]	other results
COc1cc2cc(C#N)ccc2c(OC)c1Oc1cc(NCCC2=CCCCC2)nc(Nc2ccc(C#N)cc2)n1	5	148	0.18	0.28	164	> 1000	445	1	> 688	11	0.53	494	4.65	30	90	50	0.33	> 125	16.6	
COc1cc2cc(C#N)ccc2c(OC)c1Oc1cc(N2CCOCC2)nc(Nc2ccc(C#N)cc2)n1	1	2.34	0.13	0.25		> 1000	62	3	> 6510	8	0.051	>26525	0.29	23.9	634	14	0.038	> 125	0.52	IC50 [5]: > 1000 µM
COc1cc2cc(C#N)ccc2c(OC)c1Oc1cc(NC2CCC2)nc(Nc2ccc(C#N)cc2)n1	5	2.47		0.11	145	> 1000	68	1	> 7040	9	0.084	3981	0.33	3.13	86	28	0.037	> 125	1.02	IC50 [3]: 0.044 µM
COc1cc2cc(C#N)ccc2c(OC)c1Oc1cc(NCC2CC2)nc(Nc2ccc(C#N)cc2)n1	5	1.42	0.031	0.09	74.4	213	58	1	> 10500	9	0.059	3026		1.37	56	39	0.025	> 125	0.96	IC50 [13]: 0.21 µM
CCCC(CCC)Nc1cc(Oc2c(OC)cc3cc(C#N)ccc3c2OC)nc(Nc2ccc(C#N)cc2)n1	2	> 1000	0.36	0.61	> 1000	> 1000	>1416	1	> 330	37	1.59	>1416	26.4	> 1000	>1416	181	0.71	> 125	128	
COc1cc2cc(C#N)ccc2c(OC)c1Oc1cc(NCCCOC(C)C)nc(Nc2ccc(C#N)cc2)n1	1	2.51	0.033	0.32	> 1000	> 1000	58	3	> 5380	13	0.057	>23202	0.55	2.07	48	29	0.043	> 125	1.23	
COc1cc2cc(C#N)ccc2c(OC)c1Oc1cc(NC2CCCCC2)nc(Nc2ccc(C#N)cc2)n1	2	50.3	0.13	0.44	> 1000		479	1	> 2290	12	0.57	>9533	1.27	97.9	933	379	0.1	> 125	39.8	IC50 [6]: > 1000 µM
COc1cc2cc(C#N)ccc2c(OC)c1Oc1cc(NC2CC2)nc(Nc2ccc(C#N)cc2)n1	3		0.038	0.08	9.59	> 1000	45	2	> 12700	9	0.061	468	0.19	1.28	63	29	0.02	> 125	0.59	IC50 [2]: 0.91 µM
COc1cc2cc(C#N)ccc2c(OC)c1Oc1cc(NCC(F)(F)F)nc(Nc2ccc(C#N)cc2)n1	2	1.8	0.04	0.14	5.91	186	51	1	> 6820	10		168	0.36	2.52	71	14	0.035	> 125	0.49	IC50 [11]: 0.073 µM
